From patent publication US5747507A, “Cardio-protective agent” (priority 1992, dated 1998)
Values joined by “and” are separate entries in the source; they are usually repeats but may differ in a detail not shown here. Identical values can stand only once.

Legend:
[1] = literature; cited from earlier work
[2] = system: vascular smooth muscle; details: literature; cited from earlier work
[3] = system: heart; details: in vivo; cited from earlier work
[4] = system: isolated hearts; experiment: Inhibitory effect on myocardial cell injury caused by ischemia/reperfusion (1): coronary artery flow of isolated hearts (Langendorff method); set-up: species or system male Wistar rats; details: for Coronary flow change (% based on pre-ischemic values): 40 min after initiation of reperfusion; for Bradycardia and cardiac arrest (in words): perfused isolated hearts; for Lowering of coronary artery flow (in words): ischemia/reperfusion
From the text: Inhibitory effect on myocardial cell injury caused by ischemia/reperfusion (1)
(§1) Hearts excised from male Wistar rats (approximately six-week old) were perfused with the Krebs-Heiseleit solution according to the Langendorff method [Tamura and Fujii, "Yakurigaku Jikkenho (Experimental Methods in Pharmacology)", pp. 176-177, 1990, published by Kyodo-isho Publishing Co., Ltd., Japan; and Yamada, Kubota et al., "Yakurigaku Jisshu (Pharmacological Practice)", pp. 79-81, 1979, published by Kodansha Scientific Co., Ltd., Japan]. After the isolated hearts were allowed to stabilize, the flowing of the perfusate was temporarily stopped, and the isolated hearts were allowed to be in an ischemic state for 40 minutes. Subsequently, reperfusion was conducted for 40 minutes.
Hydrochlorides of compounds (1) and (83) mentioned above were individually dissolved in distilled water, and the resultant aqueous solutions of the hydrochlorides of compounds (1) and (83) were individually introduced to and perfused in a perfusion circuit with the reperfusate for 5 minutes simultaneously with the initiation of reperfusion. In the same manner as mentioned above, diltiazem as a comparative agent and physiological saline as a control were individually perfused with the reperfusate. The perfusion conditions of the aqueous solutions of the hydrochlorides of compounds (1) and (83), diltiazem and physiological saline are shown in Table 3.
With respect to each of the test agents, the coronary artery flow was measured just before the ischemia, i.e., the stopping of the perfusion, and 40 minutes after the initiation of reperfusion using an electromagnetic flow probe FF-030P (manufactured and sold by Nippon Koden Corp., Japan).

[5] = system: endothelin-induced myocardial infarction; experiment: Inhibitory effect on endothelin-induced myocardial infarction: T-wave elevation in rabbit electrocardiogram; assay type: in vivo, Japanese White rabbits; details: 3.0 mg/kg oral; for T-wave elevation: 15 min before endothelin 1.2 nmol/kg i.v., 3 min after endothelin, mean values
From the text: (§2) Inhibitory effect on endothelin-induced myocardial infarction
(§3) The inhibitory effect of the cardio-protective agent of the present invention on endothelin-induced myocardial infarction was examined in the following manner.
(§4) The animals used in the examination were Japanese White rabbits each weighing 2.0 to 3.1 kg, which were divided into two groups, i.e., a first group consisting of 40 rabbits and a second group consisting of 13 rabbits. The hydrochloride of the above-mentioned compound (1) was dissolved in distilled water, and the resultant solution was orally administered to each of 10 rabbits of the first group in an amount of 3.0 mg/kg (body weight). In the same manner as mentioned above, diltiazem and nicorandil were individually, orally administered to each of another 10 rabbits of the first group. As a control, distilled water was orally administered to each of the remaining 10 rabbits of the first group.
(§5) Fifteen minutes after the administration, 1.2 nmol/kg (body weight) of endothelin (manufactured and sold by Peptide Institute, Japan) was injected into the auricular vein of each of the above rabbits of the first and second groups, thereby inducing myocardial infarction. With respect to the rabbits of the first and second groups, the degree of myocardial infarction was evaluated by rabbit electrocardiogram and by measuring the activity of enzymes leaked into the rabbit plasma, respectively, as follows.
With respect to each of the rabbits of the first group, the rabbit electrocardiogram was taken just before and 3 minutes after the injection of endothelin, according to the standard limb lead II induction method [Ozawa, Training of Electrocardiogram, p. 24-32, 1984, Chugai Igaku Co., Ltd., Japan), and T-wave elevation was measured.

[6] = literature; cited from earlier work; remark: listed apart in the source
[7] = system: endothelin-induced myocardial infarction; experiment: Inhibitory effect on endothelin-induced myocardial infarction: creatine kinase activity in rabbit plasma; assay type: in vivo, Japanese White rabbits
From the text: as §2, §3, §4
(§6) With respect to the rabbits of the second group, the above-prepared aqueous solution of the hydrochloride of compound (1) was orally administered to each of 7 rabbits in the same manner as mentioned above, and as a control, distilled water was orally administered to each of the remaining 6 rabbits.
as §5
(§7) With respect to each of the rabbits of the second group, the blood was collected using a heparinized syringe just before and thirty minutes after the intravenous administration of endothelin. The collected blood was subjected to centrifugation using a cooling centrifuge (CR20B2, manufactured and sold by Hitachi Corp., Japan), to thereby separate plasma. […]

[8] = system: isolated hearts; experiment: Inhibitory effect on myocardial cell injury caused by ischemia/reperfusion (2): leaked creatine kinase activity, isolated hearts (Langendorff method); set-up: species or system rats; details: mean values
From the text: as §1
(§8) Inhibitory effect on myocardial cell injury caused by ischemia/reperfusion (2)
(§9) In the same manner as in Example 2, hearts excised from rats were perfused in the Krebs-Henseleit solution in accordance with the Langendorff method. After the isolated hearts were allowed to stabilize, the flowing of the perfusate was temporarily stopped, and the isolated hearts were allowed to be in an ischemic state for 20 minutes. Subsequently, reperfusion was conducted for 60 minutes. As activities of the leaked enzymes, the lactate dehydrogenase activity and […] activity were examined with respect to each of the samples using an autoanalizer (Super Z 818, manufactured and sold by NITTEC Co., Ltd., Japan). The aqueous solutions of the hydrochlorides of compounds (1) and (83) were individually introduced to and perfused in a perfusion circuit with reperfusate simultaneously with the initiation of the reperfusion under the conditions as shown in Table 4. As a control, physiological saline was perfused with the reperfusate in the same manner as mentioned above. The above-mentionedactivities of the enzymes leaked into the perfusate and reperfusate were, respectively, measured before the ischemia and 10 minutes after the initiation of reperfusion.

[9] = system: isolated hearts; experiment: Inhibitory effect on myocardial cell injury caused by ischemia/reperfusion (2): leaked lactate dehydrogenase activity, isolated hearts (Langendorff method); set-up: species or system rats; details: for Lactate dehydrogenase activity, before ischemia / Lactate dehydrogenase activity, 10 min after initiation of reperfusion: mean values; for Activities of the leaked enzymes (in words): lactate dehydrogenase and creatine kinase, ischemia/reperfusion
From the text: as §1, §8, §9

[10] = literature; cited from earlier work; remark: listed apart in the source
[11] = system: endothelin-induced myocardial infarction; experiment: Inhibitory effect on endothelin-induced myocardial infarction: lactate dehydrogenase activity in rabbit plasma; assay type: in vivo, Japanese White rabbits
From the text: as §2, §3, §4, §6, §5, §7

[12] = system: Japanese White rabbits; experiment: Toxicity in oral administration; assay type: in vivo; details: 30 mg/kg (body weight)
From the text: Toxity in oral administration

[13] = plasma, 3.0 mg/kg oral, 30 min after i.v. endothelin, mean values
[14] = plasma, 3.0 mg/kg oral, just before i.v. endothelin, mean values

For `N=C(N)NCCNS(=O)(=O)c1cccc2cnccc12` [(104), N-(2-guanidinoethyl)-5-isoquinolinesulfonamide], the “Effect on blood flow” value [1] is given as “increasing effect on blood flow” and the “Effect on vascular smooth muscle” value [2] is given as “relaxing effect on vascular smooth muscle”.
For `COc1ccc([C@@H]2Sc3ccccc3N(CCN(C)C)C(=O)[C@@H]2OC(C)=O)cc1` [Diltiazem, reference compound], the “Side effect on atrioventricular conducting system” value [3] is listed as “atrioventricular conducting system of the patient is depressed”, the “Side effect on heart rate” value [3] is listed as “decrease in heart rate” and the “Bradycardia” value ([4]; 1 × 10^-5 M) is listed as “bradycardia”. The “Cardiac arrest” value ([4]; 1 × 10^-5 M) was “cardiac arrest”, the “Coronary flow change (% based on pre-ischemic values)” value ([4]; 3 × 10^-6 M) was 54% and the “Bradycardia and cardiac arrest (in words)” value [4] was “bradycardia and cardiac arrest occurred”. For the same compound, the “Inhibition of T-wave elevation (in words)” value (“Inhibition” below) [5] was “T-wave elevation was not inhibited” and the T-wave elevation [5] was 0.46 mV.
With `O=C(NCCO[N+](=O)[O-])c1cccnc1` [Nicorandil] the “Inhibition” value [5] was “T-wave elevation was not inhibited” and the T-wave elevation [5] was 0.58 mV.
For `O=S(=O)(c1cccc2cnccc12)N1CCCNCC1` [compound (1), 1-(5-isoquinolinesulfonyl)homopiperazine], the “Coronary flow change (% based on pre-ischemic values)” value ([4]; 3 × 10^-6 M) was 70%, the “Lowering of coronary artery flow (in words)” value [4] was “greatly inhibited” and the “Bradycardia and cardiac arrest (in words)” value [4] was “neither bradycardia nor cardiac arrest occurred”. For the same compound, the Antihypertensive effect [6] was “antihypertensive effect”, the “Inhibition” value [5] was “can remarkably inhibit the T-wave elevation” and the T-wave elevation [5] was 0.00 mV and 0 mV. The “Effect on creatine kinase activity in plasma (in words)” value ([7]; caused by i.v. endothelin) was “had an inhibitory effect”, the “Creatine kinase activity, 30 min after administration” value [7, 13] was 163.9 IU/1 and the “Creatine kinase activity, just before administration” value [7, 14] was 114.6 IU/1. The “Effect on blood flow” value [1] was “increasing effect on blood flow”, the “Creatine kinase activity, before ischemia” value ([8]; 10^-5 M group) was 18.6 IU/min and the “Creatine kinase activity, 10 min after initiation of reperfusion” value (“Creatine kinase activity, 10 min” below) ([8]; 10^-5 M) was 901.5 IU/min. The “Creatine kinase activity, before ischemia” value ([8]; 10^-6 M group) was 26.6 IU/min, the “Creatine kinase activity, 10 min” value ([8]; 10^-6 M) was 1159.8 IU/min and the “Lactate dehydrogenase activity, before ischemia” value ([9]; 10^-5 M group) was 21.3 IU/min. The “Lactate dehydrogenase activity, 10 min after initiation of reperfusion” value (“Lactate dehydrogenase activity, 10 min” below) ([9]; 10^-5 M) was 575.3 IU/min, the “Lactate dehydrogenase activity, before ischemia” value ([9]; 10^-6 M group) was 22.8 IU/min and the “Lactate dehydrogenase activity, 10 min” value ([9]; 10^-6 M) was 732.8 IU/min. The “Activities of the leaked enzymes (in words)” value [9] was “greatly inhibited”, the Cerebral protective effect [10] was “cerebral protective effect” and the “Effect on lactate dehydrogenase activity in plasma (in words)” value ([11]; caused by i.v. endothelin) was “had an inhibitory effect”. For the same compound, the “Lactate dehydrogenase activity, 30 min after administration” value [11, 13] was 52.1 IU/1, the “Lactate dehydrogenase activity, just before administration” value [11, 14] was 29.7 IU/1 and the “Effect on vascular smooth muscle” value [2] was “relaxing effect on vascular smooth muscle”.
With `O=S(=O)(c1cccc2c(O)nccc12)N1CCCNCC1` [compound (83), 1-(1-hydroxy-5-isoquinolinesulfonyl)homopiperazine] the “Coronary flow change (% based on pre-ischemic values)” value ([4]; 1 × 10^-5 M) was 58%, the “Coronary flow change (% based on pre-ischemic values)” value ([4]; 3 × 10^-5 M) was 61% and the “Lowering of coronary artery flow (in words)” value [4] was “greatly inhibited”. The “Bradycardia and cardiac arrest (in words)” value [4] was “neither bradycardia nor cardiac arrest occurred”, the Antihypertensive effect [6] was “antihypertensive effect” and the “Effect on blood flow” value [1] was “increasing effect on blood flow”. The “Creatine kinase activity, before ischemia” value ([8]; 10^-5 M group) was 17.4 IU/min, the “Creatine kinase activity, 10 min” value ([8]; 10^-5 M) was 881.5 IU/min and the “Lactate dehydrogenase activity, before ischemia” value ([9]; 10^-5 M group) was 1.2 IU/min. For the same compound, the “Lactate dehydrogenase activity, 10 min” value ([9]; 10^-5 M) was 487.0 IU/min, the “Activities of the leaked enzymes (in words)” value [9] was “greatly inhibited” and the “Number of rabbits died/Number of rabbits tested” value [12] was 0/5. The Cerebral protective effect [10] was “cerebral protective effect” and the “Effect on vascular smooth muscle” value [2] was “relaxing effect on vascular smooth muscle”.
